The nature of one data set: in vivo. The conditions noted are these: Sprague-Dawley, rat, ip, 10 mg/kg.
The subject of the next data set is GBM1A cells. Briefly: In vitro cytotoxicity assay (CellTiter-Glo, 72 hours). It is filed as cell-based, human. The conditions noted are these: for EC50: Homo sapiens, 72 h, 72 hours, read-out: Ispinesib EC50. The protocol: TP53(−/−) and PTEN(−/−) cells were seeded into 96-well plates (pre-coated with fibronectin) at a density of 5,000 cells per well in DMEM media with 0.5% FBS, 1% nitrogen supplement, 10 ng/ml of FGF and 10 ng/ml of PDGFAA. Human GBM1A cells were seeded into 96 well plates (pre-coated with laminin) in DMEM media with 1% neuroPlex supplement, 20 ng/ml of EGF and 20 ng/ml of […]. After 24 hours (~70% confluency), cells were exposed to ispinesib (n = 10 wells per concentration) from 0.025–1000 nM with or without 500 nM elacridar co-treatment. The plates were incubated for 72 hours, cell viability measured using CellTiter-Glo ATP-based assay, and read on a luminometer. The dose-response data were fit to the Hill equation.
In vitro potency data was fitted to “log(inhibitor) vs. normalized response - variable slope” equation in GraphPad Prism version 6.04 (GraphPad, La Jolla, CA) to determine half-maximal effective concentration (EC50).

Where [1] appears, read: 5 mg/kg iv bolus, Mdr1a/b-/- Bcrp1-/- mice.

Read-outs that look alike come from different tables or passages of the source.

Protocol for in vivo: Blood and brain (tumor-bearing) samples were collected at 2 hours post-dose, and whole brains were immediately flash frozen.
A fluorescence-guided punch biopsy technique (Supplementary Fig. S2) was developed and employed for isolation of tumor core, tumor rim (brain adjacent to tumor, BAT) and normal (non-tumor) brain regions from brain samples. Briefly, an acrylic adult rat brain matrix (WPI) was used to obtain thick coronal brain sections (1–2 mm thick) through the Td-Tomato labelled tumors. The tumor regions were identified by relative fluorescence signal (Nikon AZ100M microscope), and biospy punches with varying diameters were utilized to isolate tumor core (tumor region with fluorescence signal 5-fold or higher relative to background signal) and rim (region adjacent to tumor core with fluorescence signal 3 to 5-fold higher relative to background) (Supplementary Fig. S3). The samples from individual brains were pooled together for analysis of ispinesib concentrations by LC-MS/MS.
The tumor-bearing brain samples were harvested at 2 hours post dose (n = 9). Coronal sections that were 1-2 mm thick were obtained using an acrylic brain matrix, and a fluorescence microscopy guided punch biopsy method was utilized for the isolation of tumor core, tumor rim (brain adjacent to tumor, BAT) and normal (non-tumor) brain regions. The tumor core was identified as the tumor region with a fluorescence signal that was 5-fold or higher relative to the background signal. The tumor rim was defined as the region around the tumor core with a fluorescence signal 3 to 5-fold higher relative to the background signal. The brain tissue with a fluorescence signal similar to or lower than the background fluorescence was collected as the normal brain. The samples collected from each brain were pooled together, and ispinesib concentrations were determined using LC-MS/MS.

Consider `Cc1ccc(C(=O)N(CCCN)[C@@H](c2nc3cc(Cl)ccc3c(=O)n2Cc2ccccc2)C(C)C)cc1` [Ispinesib, N-(3-aminopropyl)-N-[(1 R)-1-(3-benzyl-7-chloro-4-oxoquinazolin-2-yl)-2-methylpropyl]-4-methylbenzamide], for which, where the note is “5 mg/kg intravenous, FVB wild-type mice, from in vivo concentrations and fu”, the “predicted unbound concentrations in the brain compared with in vitro EC50 against GBM1A” value is on record as “appreciably below the EC50”. Further, the “Kp, brain-to-plasma AUC ratio (total drug)” value is, setting by setting: under setting [1], 12.12; (5 mg/kg iv bolus, wild-type mice) 0.23. Moreover, the “Kp,uu, unbound partition coefficient” value under setting [1] is 1.01. For the same molecule, the results for the Kp at 2 h in “in vivo” (normal brain), in the data set “in vivo” (tumor core) and in “in vivo” (tumor rim) were 0.11 ± 0.09, 0.77 ± 0.55 and 0.27 ± 0.18, respectively. Besides, the concentration at 2 h in “in vivo” (normal brain) amounted to 60 ± 40 ng/mL; in the data set “in vivo” (tumor core) it was 380 ± 240 ng/mL; in “in vivo” (tumor rim) it was 150 ± 110 ng/mL. In addition, the concentration giving a half-maximal response (EC50) was determined as 1.4 ± 0.2 nM in the data set on GBM1A cells ([Elacridar] 0 nM) and 0.5 ± 0.04 nM in the data set on GBM1A cells ([Elacridar] 500 nM). In addition, the “Hill Coefficient” value is given as 1.8 ± 0.3 in the data set on GBM1A cells ([Elacridar] 0 nM) and 1.7 ± 0.2 with GBM1A cells ([Elacridar] 500 nM).

Values taken from publication PMC7162859 (Scientific Reports, 2020).
